# Several values for one entry are separate records, joined by “and”; a condition that tells them apart may be missing. Equal values may be shown once.
# Legend:
# [1] = target: T1, GCS-HD-GYP (V. fluvialis) (Vibrio fluvialis, UniProt A0AAX2LUU7); assay: HPLC hydrolysis assay, […] nm; type: biochemical; details: 1 mM MnCl2, pH 8.0, 20 °C
# T1 construct: gene AL536_01530; full length, C-terminal His6 tag kept, pET-21a (codon-optimized), E. coli BL21(DE3), heme-reconstituted in crude extract; mainly dimer (85 kDa by SEC)
# V. furnissii GCS-HD-GYP = target: T2, V. furnissii GCS-HD-GYP (Vibrio furnissii, UniProt A0A0Q2RS25); assay: HPLC hydrolysis assay, […] nm; type: biochemical; details: 1 mM MnCl2, pH 8.0, 20 °C; Fe(III) heme form; optimal conditions of V. fluvialis enzyme
# T2 construct: gene AMR76_07425; full length, C-terminal His6 tag kept, pET-21a (codon-optimized), E. coli host; dimer
# [2] = target: the molecule itself; assay: SEC; Superdex 200 Increase 10/300 GL, 50 mM Tris-HCl pH 8.0, 100 mM NaCl; 100 uL of 20 uM protein injected; mass estimated from standard proteins
molecule,measurement,setting,value
Nc1nc2c(ncn2[C@@H]2O[C@@H]3COP(=O)(O)O[C@H]4[C@@H](O)[C@H](n5cnc6c(=O)[nH]c(N)nc65)O[C@@H]4COP(=O)(O)O[C@H]3[C@H]2O)c(=O)[nH]1 [c-di-GMP],"HPLC hydrolysis assay, 254 nm","[1]; 0.1 mM c-di-GMP, Fe(III) or Fe(II)-O2 heme form",The Fe(III) and Fe(II)-O2 complexes of GCS-HD-GYP catalyzed the hydrolysis of c-di-GMP to form pGpG
same,"HPLC hydrolysis assay, 254 nm",V. furnissii GCS-HD-GYP,the specific activity for the PDE activity of the Fe(III) complex of V. furnissii GCS-HD-GYP
Nc1nc2c(ncn2[C@@H]2O[C@H](COP(=O)(O)O[C@H]3[C@@H](O)[C@H](n4cnc5c(=O)[nH]c(N)nc54)O[C@@H]3COP(=O)(O)O)[C@@H](O)[C@H]2O)c(=O)[nH]1 [pGpG],"HPLC hydrolysis assay, 254 nm","[1]; product of c-di-GMP hydrolysis, Fe(III) heme form","conversion of c-di-GMP to a new compound, namely its linearized product pGpG"
"Vibrio fluvialis GCS-HD-GYP (globin-coupled sensor phosphodiesterase containing an HD-GYP domain) (enzyme, UniProt A0AAX2LUU7 1-375, looked up, GCS-HD-GYP of Vibrio fluvialis, gene AL536_01530, UniProtKB A0A120L350; full-length protein, predicted mass 44.1 kDa with the C-terminal His6 tag; globin domain residues 1-166, HD-GYP domain residues 169-366; Synthetic, codon-optimised gene in pET-21a (NdeI/XhoI); Mostly a dimer, with a minor tetramer peak by SEC; also called V. fluvialis GCS-HD-GYP; AL536_01530; source: E. coli BL21(DE3), …) METAFSSEPESVIRRWASYLVIDQQTLNTLREFYWVMEQNIDDILSHVYAHLSSNRETAHFYQDEQSVKRAKAHQREHMMRYVFRGNFGAEYYNATNRIGKTHHKLGIDFKIYSGAYCIVLSQLAGVVYKVLAPEIGNVQRYMTALNRVIFMDMGLATSVYYDTACLELEELAHELNFALAKAGEFRDNETGEHIKRISRMSFELAKAAGQEPHWCKMIQIASPLHDVGKIGVPDDILLKPGKLDEQEWNVMQQHPAMGGVIIPDNKSELIRMARRISLTHHEKWDGSGYPAGLKGEEIPLEGRIVAICDVFDALLSTRPYKRPWSMEEVGTYLRDNRGKHFDPQLLDIFIENLANMQLIRCQFEDAVSPEIVAD",stoichiometry N,[2],2 and 4
"Vibrio furnissii GCS-HD-GYP (enzyme, UniProt A0A0Q2RS25 1-375, looked up, GCS-HD-GYP of Vibrio furnissii, gene AMR76_07425, UniProtKB A0A0Q2RS25; molecular mass 43.9 kDa with the C-terminal His6 tag; The synthetic, codon-optimised gene was put into pET-21a (NdeI/XhoI); also called V. furnissii GCS-HD-GYP; AMR76_07425; source: E. coli, purified; not shown: His6, C-terminal, kept) MEVAFGSDPGNAIRRWASYLAIDQQTVDALREYYWIMERNIDEVLAFVYDHLSSCPETAQFYQNEQSIVRARGHLRDHLMLYVFRGHFGVDYYNATIRIGQTHQRLGIDFKVYSGAYCIVMSQLARVVYQSLAPNIDNIHRYMSALNRAIFLDLGLATAVYYDTACFELEELAYELNFALAKAGEFRDNETGEHIKRISRMSFELAKALGQPAHWCKMIQIASPLHDVGKIGVPDEILLKPGKLDADEWKLMQQHPAIGGDIIPDNKSELIRMARRISLTHHEKWDGSGYPAGLAGEEIPLEGRIVAICDVFDALLSTRPYKRAWSVAEVVAYLRENRAKHFDPLLLDCFLEHLDSMLHIRHQFEDAAQPETVAD",stoichiometry N,[2],2

# From publication PMC10882959, “Gas-Selective Catalytic Regulation by a Newly Identified Globin-Coupled Sensor Phosphodiesterase Containing an HD-GYP Domain from the Human Pathogen Vibrio fluvialis” (Biochemistry, 2024)
